Measured values: patent publication US11919901B2 (Syndax Pharmaceuticals, Inc., priority 2021, dated 2024)

Assays:
[1] = molecular target: hERG (Homo sapiens (Human), UniProt Q12809); assay: Patch clamp assay (hERG tail currents, whole-cell); type: cell-based; conditions: hERG transfected HEK 293 cells; for hERG % Remaining 10 μM: 10 μM compound; for hERG % Remaining 30 μM: 30 μM compound; for hERG % Remaining 100 μM: 100 μM compound
[2] = molecular target: Menin-MLL (Homo sapiens (Human), UniProt O00255); assay: Determination of binding constants (Ki) to Menin-MLL (HTRF); conditions: HTRF, 0.25 nM H-FL-Menin, 3.2 nM FITC-MLL-4-43, 24 hr incubation; for Ki: read-out: Menin-MLL Ki HTRF Assay: Ki
Sequence of Menin-MLL (O00255 whole entry): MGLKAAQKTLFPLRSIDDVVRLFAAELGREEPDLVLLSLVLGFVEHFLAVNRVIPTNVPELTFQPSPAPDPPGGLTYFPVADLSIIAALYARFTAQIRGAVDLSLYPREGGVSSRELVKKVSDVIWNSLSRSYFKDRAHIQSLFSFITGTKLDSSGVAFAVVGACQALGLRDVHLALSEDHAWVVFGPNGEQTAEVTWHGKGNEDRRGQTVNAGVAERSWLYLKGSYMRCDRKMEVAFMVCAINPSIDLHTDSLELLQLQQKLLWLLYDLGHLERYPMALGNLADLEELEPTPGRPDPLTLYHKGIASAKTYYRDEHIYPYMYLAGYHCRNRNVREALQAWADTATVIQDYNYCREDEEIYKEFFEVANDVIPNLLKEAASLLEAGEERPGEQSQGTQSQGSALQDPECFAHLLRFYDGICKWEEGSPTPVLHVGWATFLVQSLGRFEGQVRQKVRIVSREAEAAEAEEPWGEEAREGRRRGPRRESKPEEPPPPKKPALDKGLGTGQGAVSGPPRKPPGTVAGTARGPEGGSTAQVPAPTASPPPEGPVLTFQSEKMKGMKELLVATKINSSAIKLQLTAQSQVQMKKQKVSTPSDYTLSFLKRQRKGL

Sequence of hERG (Q12809 whole entry): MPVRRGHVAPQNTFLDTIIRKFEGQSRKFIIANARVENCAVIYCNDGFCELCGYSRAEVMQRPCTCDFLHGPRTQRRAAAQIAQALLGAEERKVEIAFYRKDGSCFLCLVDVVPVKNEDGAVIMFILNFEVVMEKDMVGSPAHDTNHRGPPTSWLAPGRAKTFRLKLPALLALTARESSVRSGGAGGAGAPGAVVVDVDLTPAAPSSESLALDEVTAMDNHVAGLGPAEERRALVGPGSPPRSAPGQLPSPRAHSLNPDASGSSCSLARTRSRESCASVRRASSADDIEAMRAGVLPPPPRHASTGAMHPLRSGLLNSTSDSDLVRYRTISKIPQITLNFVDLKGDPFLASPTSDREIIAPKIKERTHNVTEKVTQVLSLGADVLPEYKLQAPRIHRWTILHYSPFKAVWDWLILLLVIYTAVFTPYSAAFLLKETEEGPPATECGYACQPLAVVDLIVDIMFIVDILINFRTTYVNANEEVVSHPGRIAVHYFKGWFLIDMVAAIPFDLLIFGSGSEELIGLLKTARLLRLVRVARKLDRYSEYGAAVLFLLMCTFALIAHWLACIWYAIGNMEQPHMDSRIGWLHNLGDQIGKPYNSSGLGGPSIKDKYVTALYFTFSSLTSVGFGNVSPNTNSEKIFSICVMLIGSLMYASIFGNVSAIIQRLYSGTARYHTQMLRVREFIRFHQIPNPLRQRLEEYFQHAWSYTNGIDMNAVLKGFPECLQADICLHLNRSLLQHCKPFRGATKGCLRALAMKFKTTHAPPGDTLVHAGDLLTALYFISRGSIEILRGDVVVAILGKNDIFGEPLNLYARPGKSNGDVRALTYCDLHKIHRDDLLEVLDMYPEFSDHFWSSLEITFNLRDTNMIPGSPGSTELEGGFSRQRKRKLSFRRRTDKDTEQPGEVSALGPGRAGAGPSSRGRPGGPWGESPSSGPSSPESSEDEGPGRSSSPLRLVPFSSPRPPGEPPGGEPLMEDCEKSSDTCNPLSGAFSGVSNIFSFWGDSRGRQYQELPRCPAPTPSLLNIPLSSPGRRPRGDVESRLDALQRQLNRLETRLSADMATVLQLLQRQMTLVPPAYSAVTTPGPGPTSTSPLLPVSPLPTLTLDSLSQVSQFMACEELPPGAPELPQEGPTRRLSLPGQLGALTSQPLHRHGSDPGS

Compound	hERG % Remaining 10 μM [1]	hERG % Remaining 30 μM [1]	EC50 [2] [nM]	Ki [2] [nM]	hERG % Remaining 100 μM [1]	IC50 [1] [nM]	hERG % Remaining 3 μM ([1]; 3 μM compound)
CCN(C(=O)c1cc(F)ccc1Oc1cncnc1N1CC2(CCN(C[C@@H]3CC[C@@H](NS(=O)(=O)c4cccc(OC)c4)CO3)CC2)C1)C(C)C [Compound 66, N-Ethyl-5-fluoro-N-isopropyl-2-((4-(7-(((2S,5R)-5-((3-methoxyphenyl)sulfonamido)tetrahydro-2H-pyran-2-yl)methyl)-2,7-diazaspiro[3.5]nonan-2-yl)pyrimidin-5-yl)oxy)benzamide]	+ (“+” means <33%)	+ (“+” means <33%)	< 50	< 1	–	–	–
CNS(=O)(=O)N[C@@H]1CC[C@@H](CN2CCC3(CC2)CN(c2ncncc2Oc2ccc(F)cc2C(=O)N(C(C)C)C(C)C)C3)OC1 [Compound 143, 5-Fluoro-N,N-diisopropyl-2-((4-(7-(((2S,5R)-5-((N-methylsulfamoyl)amino)tetrahydro-2H-pyran-2-yl)methyl)-2,7-diazaspiro[3.5]nonan-2-yl)pyrimidin-5-yl)oxy)benzamide]	–	+++ (“+++” means ≥66%)	–	< 1	+++ (“+++” means ≥66%)	≥ 50000	–
CCS(=O)(=O)N[C@@H]1CC[C@@H](CN2CCC3(CC2)CN(c2ncncc2Oc2ccc(F)cc2C(=O)N(C(C)C)C2CC(F)(F)C2)C3)OC1 [Compound 44, N-(3,3-difluorocyclobutyl)-2-((4-(7-(((2S,5R)-5-(ethylsulfonamido)tetrahydro-2H-pyran-2-yl)methyl)-2,7-diazaspiro[3.5]nonan-2-yl)pyrimidin-5-yl)oxy)-5-fluoro-N-isopropylbenzamide]	+++ (“+++” means ≥66%)	++ (“++” means ≥33% and <66%)	< 50	< 1	–	–	–
CCN(C(=O)c1cc(F)ccc1Oc1cncnc1N1CC2(CCN(C[C@@H]3CC[C@@H](NS(=O)(=O)c4ccccc4)CO3)CC2)C1)C(C)C [Compound 45, N-ethyl-5-fluoro-N-isopropyl-2-((4-(7-(((2S,5R)-5-(phenylsulfonamido)tetrahydro-2H-pyran-2-yl)methyl)-2,7-diazaspiro[3.5]nonan-2-yl)pyrimidin-5-yl)oxy)benzamide]	++ (“++” means ≥33% and <66%)	+ (“+” means <33%)	< 50	< 1	–	–	–
CC(C)N(CC(F)F)C(=O)c1cc(F)ccc1Oc1cncnc1N1CC2(CCN(C[C@@H]3CC[C@@H](NS(=O)(=O)N(C)C(C)C)CO3)CC2)C1 [Compound 101, N-(2,2-Difluoroethyl)-5-fluoro-N-isopropyl-2-((4-(7-(((2S,5R)-5-((N-isopropyl-N-methylsulfamoyl)amino)tetrahydro-2H-pyran-2-yl)methyl)-2,7-diazaspiro[3.5]nonan-2-yl)pyrimidin-5-yl)oxy)benzamide]	–	+ (“+” means <33%)	–	< 1	–	–	–
CC(C)N(C(=O)c1cc(F)ccc1Oc1cncnc1N1CC2(CCN(C[C@@H]3CC[C@@H](NS(=O)(=O)C(C)C)CO3)CC2)C1)C(C)C [Compound 14, 5-fluoro-N,N-diisopropyl-2-((4-(7-(((2S,5R)-5-((1-methylethyl)sulfonamido)tetrahydro-2H-pyran-2-yl)methyl)-2,7-diazaspiro[3.5]nonan-2-yl)pyrimidin-5-yl)oxy)benzamide]	+++ (“+++” means ≥66%)	++ (“++” means ≥33% and <66%)	< 50	< 1	+ (“+” means <33%)	25000 to 50000	+++ (“+++” means ≥66%)
CC(C)N(C(=O)c1cc(F)ccc1Oc1cncnc1N1CC2(CCN(C[C@@H]3CC[C@@H](NS(=O)(=O)N4CCC4)CO3)CC2)C1)[C@H]1CCOC1 [Compound 134, 2-((4-(7-(((2S,5R)-5-(Azetidine-1-sulfonamido)tetrahydro-2H-pyran-2-yl)methyl)-2,7-diazaspiro[3.5]nonan-2-yl)pyrimidin-5-yl)oxy)-5-fluoro-N-isopropyl-N-((S)-tetrahydrofuran-3-yl)benzamide]	–	+++ (“+++” means ≥66%)	–	< 1	–	–	–
